Assays:
[1] = test system: PHA-induced IL-2 production in PBMCs; experiment: PHA-induced IL-2 production in PBMCs from healthy male smokers (no IL-2/IL-4 added), ELISA; type: cell-based, human; design: PR2005 IC50: unit not given here; settings: for mean IL-2: Table 1; for % inhibition of PHA stimulation of IL-2: Table 2
Procedure: PBMCs were isolated from human blood buffy coats provided by a regional blood center. Random buffy coat cells from male donors were a by-product of blood processed for clinical use and no details (i.e., personal identification and background) were provided except for tobacco use. […] PBMCs were separated using a porous high density polyethylene barrier (HISTOPAQUE from GEHealthcare Bio-Sciences AB (US). After centrifugation of blood samples in each tube (35 minutes at 800×g at room temperature, or RT), PBMCs were collected and washed twice with Hank's buffered saline solution (HBSS). PBMCs were resuspended in RPMI-1640 medium containing 10% fetal calf serum (FCS) and 15 mM glutamine and cells were counted and plated.
PBMCs (2×10^6) were incubated with or without IL-2 (13 ng/ml) and IL-4 (6.5 ng/ml) for 48 hours in RPMI-1640 medium containing 10% FCS and 2 mM glutamine. […] IL-2 and IL-4 stimulated PBMCs were also plated at a concentration of 10^6 cells/ml in 96-well plates ready for PHA (15 μg/mL, 24 hours) stimulation of cytokine release and detection by ELISA.
Serial dilutions of standards and PBMCs' supernatants were measured by enzyme linked immunosorbent assay to determine IL-2 at baseline and its levels after 17HPC, P4 and MAP treatments. Optical density was measured at 450 nm and corrected with 550 nm. The concentration of TL-2 was calculated using the standard curve and taking into account the supernatant dilution used. Detection limit for IL-2 is 4.0 pg/ml.
Data are expressed as mean±SD. The efficacies of the drug treatments were analyzed by paired t-test. One-way analysis of variance was used to compare three or more matched groups and 95% CI was performed to present groups differences. All graphs indicate mean values of results or % inhibition of PHA-stimulated IL-2. IC50 values were calculated by using a sigmoidal model (BioDataFit). A p value <0.05 was considered statistically significant.
(§1) IL-2 levels were quantified using ELISA.
IL-2 levels were quantified using ELISA. IC50 values were calculated by using a sigmoidal model (BioDataFit).
as §1, §1, §1

[2] = API particle size distribution (Dv(10), Dv(50), Dv(90), Span); type: physicochemical; settings: 5% (w/w) in water, 15% Tween 80, 90 bar
Description: In determining and characterizing particle size, e.g., particle size of an API (active pharmaceutical ingredient), the particle size parameters Dv(10), Dv(50) and Dv(90) may be used. Particle size measurements are preferably expressed in terms of Dv(10), Dv(50), and Dv(90), wherein Dv(10) refers to the particle size below which 10% of the volume of material exists; Dv(50) refers to the particle size below which 50% of the volume of material exists; and Dv(90) refers to the particle size below which 90% of the volume of material exists.
Referring to Table 5, experiments were performed with a suspension comprising the active pharmaceutical ingredient (the API), i.e., 17-HPC was the API in these experiments, wherein 17-HPC was present at approximately five percent (5%) w/w in water; and the suspension also comprised the surfactant Tween 80 at approximately 15% in these experiments (processing conditions conducted at Pressure=90 bar). […] Particle size measurements are expressed in terms of Dv(10), Dv(50), and Dv(90), wherein Dv(10) refers to the particle size below which 10% of the volume of material exists; Dv(50) refers to the particle size below which 50% of the volume of material exists; and Dv(90) refers to the particle size below which 90% of the volume of material exists). […]
Exemplary particle size reduction experiments, and characterization of API (i.e., 17-HPC) particle size distribution, using a suspension prepared without a surfactant. Referring to Table 7, particle size reduction of 17-HPC was observed without using any surfactant. Experiments were performed with a suspension comprising the active pharmaceutical ingredient (the API), i.e., 17-HPC in these experiments, in water and without a surfactant. FIG. 16 depicts an exemplary API particle size distribution profile (17-HPC is the active ingredient) after a spray-drying (SD) process. Referring again to FIG. 16, and also to Table 7, an exemplary 17-HPC particle size distribution profile was obtained after approximately 10 to 55 cycles of milling. API particle size was measured after spray drying (SD). Particle size measurements are expressed in terms of Dv(10), Dv(50), and Dv(90), wherein Dv(10) refers to the particle size below which 10% of the volume of material exists; Dv(50) refers to the particle size below which 50% of the volume of material exists; and Dv(90) refers to the particle size below which 90% of the volume of material exists).

CCCCCC(=O)O[C@]1(C(C)=O)CC[C@H]2[C@@H]3CCC4=CC(=O)CC[C@]4(C)[C@H]3CC[C@@]21C [17HPC, 17α-HYDROXYPROGESTERONE CAPROATE]
PR2005 IC50 ([1]; Dexamethasone 0): 6.434
suppression of PHA induced IL-2 ([1]; FIG. 11, 17HPC add-on to Dexamethasone 10^−6 M): ~100%
improvements in Dexamethasone efficacy (synergetic effect of combination) ([1]; FIG. 12, 17HPC with Dexamethasone): 25-37%
mean IL-2 ([1]; 17HPC 10^−5M + Dexamethasone 10^−6M): 24.61 pg/mL
mean IL-2 ([1]; 17HPC 10^−5M + Dexamethasone 10^−8M): 136.2 pg/mL
mean IL-2 ([1]; 17HPC 10^−5M + Dexamethasone 10^−10M): 138.6 pg/mL
mean IL-2 ([1]; 17HPC 10^−5M + Dexamethasone 10^−12M): 176.2 pg/mL
mean IL-2 ([1]; 17HPC 10^−5M, Dexamethasone 0): 225.6 pg/mL
mean IL-2 ([1]; 17HPC 10^−7M + Dexamethasone 10^−6M): 9.914 pg/mL
mean IL-2 ([1]; 17HPC 10^−7M + Dexamethasone 10^−8M): 229.3 pg/mL
mean IL-2 ([1]; 17HPC 10^−7M + Dexamethasone 10^−10M): 104.5 pg/mL
mean IL-2 ([1]; 17HPC 10^−7M + Dexamethasone 10^−12M): 111.6 pg/mL
mean IL-2 ([1]; 17HPC 10^−7M, Dexamethasone 0): 466.3 pg/mL
mean IL-2 ([1]; 17HPC 10^−10M + Dexamethasone 10^−6M): 27.18 pg/mL
mean IL-2 ([1]; 17HPC 10^−10M + Dexamethasone 10^−8M): 173.5 pg/mL
mean IL-2 ([1]; 17HPC 10^−10M + Dexamethasone 10^−10M): 177.7 pg/mL
mean IL-2 ([1]; 17HPC 10^−10M + Dexamethasone 10^−12M): 132.3 pg/mL
mean IL-2 ([1]; 17HPC 10^−10M, Dexamethasone 0): 420.6 pg/mL
mean IL-2 ([1]; 17HPC 10^−11M + Dexamethasone 10^−6M): 9.05 pg/mL
mean IL-2 ([1]; 17HPC 10^−11M + Dexamethasone 10^−8M): 167.9 pg/mL
mean IL-2 ([1]; 17HPC 10^−11M + Dexamethasone 10^−10M): 164.4 pg/mL
mean IL-2 ([1]; 17HPC 10^−11M + Dexamethasone 10^−12M): 275.2 pg/mL
mean IL-2 ([1]; 17HPC 10^−11M, Dexamethasone 0): 448.2 pg/mL
% inhibition of PHA stimulation of IL-2 ([1]; 17HPC 10^−5 M + Dexamethasone 10^−6 M): 97%
% inhibition of PHA stimulation of IL-2 ([1]; 17HPC 10^−5 M + Dexamethasone 10^−8 M): 81%
% inhibition of PHA stimulation of IL-2 ([1]; 17HPC 10^−5 M + Dexamethasone 10^−10 M): 81%
% inhibition of PHA stimulation of IL-2 ([1]; 17HPC 10^−5 M + Dexamethasone 10^−12 M): 76%
% inhibition of PHA stimulation of IL-2 ([1]; 17HPC 10^−5 M, Dexamethasone 0 M): 69%
% inhibition of PHA stimulation of IL-2 ([1]; 17HPC 10^−7 M + Dexamethasone 10^−6 M): 99%
% inhibition of PHA stimulation of IL-2 ([1]; 17HPC 10^−7 M + Dexamethasone 10^−8 M): 69%
% inhibition of PHA stimulation of IL-2 ([1]; 17HPC 10^−7 M + Dexamethasone 10^−10 M): 86%
% inhibition of PHA stimulation of IL-2 ([1]; 17HPC 10^−7 M + Dexamethasone 10^−12 M): 85%
% inhibition of PHA stimulation of IL-2 ([1]; 17HPC 10^−7 M, Dexamethasone 0 M): 37%
% inhibition of PHA stimulation of IL-2 ([1]; 17HPC 10^−10 M + Dexamethasone 10^−6 M): 96%
% inhibition of PHA stimulation of IL-2 ([1]; 17HPC 10^−10 M + Dexamethasone 10^−8 M): 76%
% inhibition of PHA stimulation of IL-2 ([1]; 17HPC 10^−10 M + Dexamethasone 10^−10 M): 76%
% inhibition of PHA stimulation of IL-2 ([1]; 17HPC 10^−10 M + Dexamethasone 10^−12 M): 82%
% inhibition of PHA stimulation of IL-2 ([1]; 17HPC 10^−10 M, Dexamethasone 0 M): 43%
% inhibition of PHA stimulation of IL-2 ([1]; 17HPC 10^−11 M + Dexamethasone 10^−6 M): 99%
% inhibition of PHA stimulation of IL-2 ([1]; 17HPC 10^−11 M + Dexamethasone 10^−8 M): 77%
% inhibition of PHA stimulation of IL-2 ([1]; 17HPC 10^−11 M + Dexamethasone 10^−10 M): 78%
% inhibition of PHA stimulation of IL-2 ([1]; 17HPC 10^−11 M + Dexamethasone 10^−12 M): 63%
% inhibition of PHA stimulation of IL-2 ([1]; 17HPC 10^−11 M, Dexamethasone 0 M): 39%
IL-2 inhibition ([1]; add-on of low doses of 17HPC (10^−11 M or 10^−10 M) to lower Dexamethasone doses): ≥ 78%
effect in basal IL-2 level ([1]; no PHA stimulation, data not shown): no significant effect
PR2005 IC50 ([1]; with Dexamethasone 10^−8M): 6.243
PR2005 IC50 ([1]; with Dexamethasone 10^−10M): 11.64
PR2005 IC50 ([1]; with Dexamethasone 10^−12M): 10.92
Particle Size Dv(10) ([2]; after 8 cycles): 1.015 μm
Particle Size Dv(50) ([2]; after 8 cycles): 3.021 μm
Particle Size Dv(90) ([2]; after 8 cycles): 7.302 μm
Particle Size Span ([2]; after 8 cycles): 2.081
Particle Size Dv(10) ([2]; after 16 cycles): 1.071 μm
Particle Size Dv(50) ([2]; after 16 cycles): 2.574 μm
Particle Size Dv(90) ([2]; after 16 cycles): 5.347 μm
Particle Size Span ([2]; after 16 cycles): 1.662
Particle Size Dv(10) ([2]; after 25 cycles): 1.014 μm
Particle Size Dv(50) ([2]; after 25 cycles): 2.255 μm
Particle Size Dv(90) ([2]; after 25 cycles): 4.517 μm
Particle Size Span ([2]; after 25 cycles): 1.553
